Data taken from patent publication US10934274B2, “Quinoline derivatives as TAM RTK inhibitors” (Qurient Co., Ltd., priority 2015, dated 2021).

Key:
Mer = target: T1, Mer (Homo sapiens, UniProt Q12866); experiment: LanthaScreen Eu kinase binding assay, Mer; conditions: Tracer 236
T1 construct: purchased Life Technologies
T1 sequence (Q12866 21-999): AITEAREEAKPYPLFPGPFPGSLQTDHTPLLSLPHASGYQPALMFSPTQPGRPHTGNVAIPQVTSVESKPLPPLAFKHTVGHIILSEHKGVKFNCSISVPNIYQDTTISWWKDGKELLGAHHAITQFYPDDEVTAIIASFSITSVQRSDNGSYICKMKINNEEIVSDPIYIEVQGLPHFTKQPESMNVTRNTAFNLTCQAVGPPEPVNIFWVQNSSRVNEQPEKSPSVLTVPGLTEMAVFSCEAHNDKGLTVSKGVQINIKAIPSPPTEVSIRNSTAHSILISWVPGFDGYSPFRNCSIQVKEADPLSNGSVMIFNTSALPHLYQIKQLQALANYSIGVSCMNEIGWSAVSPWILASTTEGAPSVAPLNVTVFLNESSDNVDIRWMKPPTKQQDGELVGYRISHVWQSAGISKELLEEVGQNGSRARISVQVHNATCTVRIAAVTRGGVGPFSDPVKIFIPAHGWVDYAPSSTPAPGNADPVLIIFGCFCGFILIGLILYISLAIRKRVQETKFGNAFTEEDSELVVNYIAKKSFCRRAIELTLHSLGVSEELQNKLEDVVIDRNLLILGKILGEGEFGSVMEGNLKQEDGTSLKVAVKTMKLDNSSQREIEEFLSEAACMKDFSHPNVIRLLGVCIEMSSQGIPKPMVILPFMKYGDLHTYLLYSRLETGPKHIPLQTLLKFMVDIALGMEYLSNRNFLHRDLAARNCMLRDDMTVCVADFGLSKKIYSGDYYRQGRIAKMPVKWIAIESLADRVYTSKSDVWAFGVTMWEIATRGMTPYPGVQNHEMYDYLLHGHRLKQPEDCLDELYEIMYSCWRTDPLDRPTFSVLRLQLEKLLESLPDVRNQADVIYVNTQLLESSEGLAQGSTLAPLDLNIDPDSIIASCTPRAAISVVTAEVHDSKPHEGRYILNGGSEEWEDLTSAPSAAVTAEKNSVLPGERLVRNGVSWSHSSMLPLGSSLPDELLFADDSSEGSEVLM

[1] = system: Axl phosphorylation in transiently transfected HEK293T cells; experiment: Cellular Axl phosphorylation assay; format: cell-based; conditions: Homo sapiens, HEK-293T; HEK293T cells transfected with Axl, 1 hour compound treatment, Phospho-Axl vs Total-Axl
Outline: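 HEK293T cells transiently transfected with Axl (empty pcDNA_DEST_40 vector as minimum control) were treated with compound in DMSO for 1 h, then lysed. Total and phospho-Axl in lysates were measured by Mesoscale electrochemiluminescence immunoassay. IC50 was taken relative to the DMSO vehicle and empty-vector controls.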

HCC827/ER cells = experiment: WST-1 cell viability assay in erlotinib-resistant cells; conditions: compound combined with Erlotinib at constant 1:1 ratio, 3 days, FBS 1%
Experimental: The killed cells were discarded and the remaining cells were cultured in a drug-free medium up to 80% confluence. Subsequently, cells were continuously exposed to increasing drug doses of up to 10 μM over a period of 8 months.
HCC827/ER cells were seeded in a 96-well plate with their respective media containing 10% FBS at 5000 cells/well. After seeding, the HCC827/ER cells were incubated for approximately 24 hours. […] The viability of the HCC827/ER cells was determined by adding WST-1 reagent according to Manufacturer's instructions (DoGenbio co., Ltd) and incubating for four hours. The plates were then read using an absorbance of 440 nm on Tecan Microplate reader (Infinite M200 pro, TECAN). The HCC827/ER cells' viability were calculated relative to vehicle (DMSO) control wells.

SMILES | Kd (Mer) [µM] | IC50 [1] [µM] | Combination effect of compound and erlotinib on inhibition activity in Erlotinib-resistant cell-line (HCC827/ER cells)
CCOc1cn(-c2ccc(Cl)cc2C)nc1C(=O)Nc1ccc(Oc2ccnc3cc(OC)c(OC)cc23)cn1 [Compound 87] | < 0.1 | < 0.1 | 
CCOc1cn(-c2c(C)cc(OC)cc2C)nc1C(=O)Nc1ccc(Oc2ccnc3cc(OC)c(OC)cc23)cn1 [Compound 92] | < 0.1 | < 0.1 | 
CCOc1cn(-c2ccc(F)cc2)nc1C(=O)Nc1ccc(Oc2ccnc3cc(OC)c(OC)cc23)cn1 [Compound 89] | < 0.1 | < 0.1 | 
CCOc1cn(-c2ncc(N)cn2)nc1C(=O)Nc1ccc(Oc2ccnc3cc(OC)c(OC)cc23)cn1 [Compound 93] | < 0.1 | < 0.1 | 
CCOc1cn(-c2cccnc2)nc1C(=O)Nc1ccc(Oc2ccnc3cc(OC)c(OC)cc23)cc1F [Compound 85] | < 0.1 | < 0.1 | 
CCOc1cn(-c2ccc(F)cc2C)nc1C(=O)Nc1ccc(Oc2ccnc3cc(OC)c(OC)cc23)c(Cl)c1 [Compound 82] | < 0.1 | < 0.1 | 

Further lines, with some results ahead:

Kd (Mer) [µM] | SMILES | IC50 [1] [µM] | Combination effect of compound and erlotinib on inhibition activity in Erlotinib-resistant cell-line (HCC827/ER cells)
< 0.1 | CCOc1cn(C(C)CC#N)nc1C(=O)Nc1ccc(Oc2ccnc3cc(OC)c(OC)cc23)cn1 (centres unmarked) [Compound 81] | < 0.1 | 
< 0.1 | CCOc1cn(-c2cccnn2)nc1C(=O)Nc1ccc(Oc2ccnc3cc(OC)c(OC)cc23)cn1 [Compound 5] | < 0.1 | 
< 0.1 | CCOc1cn(CCC#N)nc1C(=O)Nc1ccc(Oc2ccnc3cc(OC)c(OC)cc23)cn1 [Compound 80] | < 0.1 | 
< 0.1 | CCOc1cn(CCOC(F)F)nc1C(=O)Nc1ccc(Oc2ccnc3cc(OC)c(OC)cc23)cn1 [Compound 86] | < 0.1 | 
< 0.1 | CCOc1cn(C2CCOC2)nc1C(=O)Nc1ccc(Oc2ccnc3cc(OC)c(OC)cc23)cn1 (centres unmarked) [Compound 76] | < 0.1 | 
< 0.1 | CCOc1cn(-c2cnccc2C)nc1C(=O)Nc1ccc(Oc2ccnc3cc(OC)c(OC)cc23)cn1 [Compound 79] | < 0.1 | synergistic effect
< 0.1 | CCOc1cn(C2CCCC2)nc1C(=O)Nc1ccc(Oc2ccnc3cc(OC)c(OC)cc23)cn1 [Compound 3] | < 0.1 | 
< 0.1 | CCOc1cn(-c2ccccn2)nc1C(=O)Nc1ccc(Oc2ccnc3cc(OC)c(OC)cc23)cn1 [Compound 4] | < 0.1 | 
